Measured values from ChEMBL document CHEMBL1201862, “PubChem BioAssay data set” (2004).
Calls of active or inactive are those of the source.

Assays:
[1] = molecular target: Peroxisome proliferator-activated receptor gamma/Nuclear receptor corepressor 2 (Homo sapiens, UniProt P37231+Q9Y618); assay: Counterscreen for NR2E3 inverse agonists: TR-FRET-based biochemical high throughput dose response assay to identify inverse agonists of the interaction between peroxisome proliferator-activated receptor gamma (PPARg) and nuclear receptor co-repressor 2 (NCOR2).; type: functional
Prothrombin = Prothrombin (Bos taurus, UniProt P00735); assay: thrombin inhibition, dose response, biochemical, fluorescence polarization, uHTS hits (AID 602369); type: functional
[2] = molecular target: 26S proteasome non-ATPase regulatory subunit 14 (Homo sapiens, UniProt O00487); assay: inhibition of proteasome subunit RPN11 – biochemical, fluorescence polarization, uHTS hits, confirmation (AID 602368); type: functional
[3] = molecular target: Guanyl-specific ribonuclease T1 (Aspergillus oryzae (strain ATCC 42149 / RIB 40), UniProt P00651); assay: RNase T1 inhibitors, dose response, counter-screen for TPT1 inhibitor project, biochemical, fluorescence polarization, 1536-well (AID 2167)
Major prion protein = Major prion protein (Homo sapiens, UniProt P04156); type: functional, cell-based
[4] = molecular target: T1, Serine/threonine-protein phosphatase (Homo sapiens, UniProt Q9BPW0); assay: Counterscreen for inhibitors of PP1: fluorescence-based biochemical high throughput dose response assay to identify inhibitors of Protein Phosphatase 5 (PP5). [Related pubchem assays: 2034 (Summary (PP5 inhibitors)), 1987 (PP5 inhibitors in singlate), 2235 (PP1 inhibitors in singlate)]
T1 sequence (Q9BPW0 whole entry): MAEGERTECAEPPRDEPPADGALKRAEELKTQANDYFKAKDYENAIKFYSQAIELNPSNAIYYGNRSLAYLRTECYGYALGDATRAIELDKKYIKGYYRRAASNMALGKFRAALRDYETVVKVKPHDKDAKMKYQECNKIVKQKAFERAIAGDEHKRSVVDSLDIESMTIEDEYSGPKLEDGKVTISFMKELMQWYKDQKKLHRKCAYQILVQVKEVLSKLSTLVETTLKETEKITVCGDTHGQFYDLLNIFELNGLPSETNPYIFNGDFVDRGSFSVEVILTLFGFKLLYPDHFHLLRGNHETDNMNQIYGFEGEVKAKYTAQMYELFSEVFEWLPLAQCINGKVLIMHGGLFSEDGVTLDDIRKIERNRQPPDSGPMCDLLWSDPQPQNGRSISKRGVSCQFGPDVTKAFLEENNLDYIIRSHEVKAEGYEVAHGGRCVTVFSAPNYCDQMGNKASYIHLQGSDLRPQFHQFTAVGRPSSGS

[5] = molecular target: Photoreceptor-specific nuclear receptor (Homo sapiens, UniProt Q9Y5X4); assay: NR2E3 inverse agonists, dose response, biochemical, TR-FRET (AID 463256); type: functional
[6] = molecular target: T2, Tyrosine-protein phosphatase non-receptor type 22 (Homo sapiens, UniProt Q9Y2R2); type: functional
T2 sequence (Q9Y2R2 whole entry): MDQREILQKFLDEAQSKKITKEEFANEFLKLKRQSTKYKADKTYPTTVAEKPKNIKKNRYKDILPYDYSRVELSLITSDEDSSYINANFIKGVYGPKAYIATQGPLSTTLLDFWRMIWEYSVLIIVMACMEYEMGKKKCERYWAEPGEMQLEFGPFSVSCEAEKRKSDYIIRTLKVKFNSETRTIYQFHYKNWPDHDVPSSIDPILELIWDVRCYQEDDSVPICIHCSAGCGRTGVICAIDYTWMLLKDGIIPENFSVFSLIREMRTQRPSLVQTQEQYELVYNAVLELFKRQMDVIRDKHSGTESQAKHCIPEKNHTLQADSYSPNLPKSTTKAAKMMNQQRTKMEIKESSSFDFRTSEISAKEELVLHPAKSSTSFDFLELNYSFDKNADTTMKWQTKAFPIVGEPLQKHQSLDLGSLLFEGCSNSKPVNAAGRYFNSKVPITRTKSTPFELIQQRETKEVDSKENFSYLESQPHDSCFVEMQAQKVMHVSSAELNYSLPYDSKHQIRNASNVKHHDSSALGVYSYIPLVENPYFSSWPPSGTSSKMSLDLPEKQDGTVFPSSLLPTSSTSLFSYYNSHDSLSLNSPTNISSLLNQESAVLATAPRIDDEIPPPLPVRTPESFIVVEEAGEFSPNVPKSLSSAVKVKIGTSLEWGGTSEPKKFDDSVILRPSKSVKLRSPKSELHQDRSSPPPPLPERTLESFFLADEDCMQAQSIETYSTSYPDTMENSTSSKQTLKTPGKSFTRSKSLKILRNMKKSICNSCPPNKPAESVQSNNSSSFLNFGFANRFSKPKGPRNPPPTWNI

[7] = molecular target: T3, Tyrosine-protein phosphatase non-receptor type 7 (Homo sapiens, UniProt P35236); type: functional
T3 sequence (P35236 whole entry): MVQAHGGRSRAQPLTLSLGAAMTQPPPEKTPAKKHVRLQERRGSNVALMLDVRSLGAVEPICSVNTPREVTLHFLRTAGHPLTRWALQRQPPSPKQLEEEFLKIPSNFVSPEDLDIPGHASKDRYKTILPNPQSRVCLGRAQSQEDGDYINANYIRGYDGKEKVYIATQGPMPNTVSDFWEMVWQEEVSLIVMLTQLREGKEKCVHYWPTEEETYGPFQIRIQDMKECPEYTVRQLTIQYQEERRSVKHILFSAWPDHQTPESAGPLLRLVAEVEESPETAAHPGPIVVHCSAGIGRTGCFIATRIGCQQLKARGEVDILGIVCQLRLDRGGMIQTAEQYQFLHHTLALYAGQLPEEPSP

[8] = molecular target: Serine/threonine-protein phosphatase PP1-alpha catalytic subunit (Homo sapiens, UniProt P62136); assay: PP1 phosphatase inhibitors, dose response, biochemical, fluorescence (AID 2403);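 note: phosphatase turnover of OMFP into fluorescent 3-O-methylfluorescein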
[9] = molecular target: 72 kDa type IV collagenase (Homo sapiens, UniProt P08253); assay: Dose Response validation of uHTS RPN11 inhibitor hits using a MMP-2 Fluorescence assay.; type: functional
[10] = molecular target: T3, Tyrosine-protein phosphatase non-receptor type 7; assay: HTS HePTP Fluorescent Assay using OMFP substrate for In Vitro dose response studies. [Related pubchem assays (depositor defined):AID1059, AID1077, AID1784, AID2068, AID2085, AID435032, AID521]; type: functional
[11] = molecular target: T2, Tyrosine-protein phosphatase non-receptor type 22; type: functional; remark: listed apart in the source
[12] = molecular target: T2, Tyrosine-protein phosphatase non-receptor type 22; assay: LYP1 Fluorescent Assay using OMFP substrate for In Vitro dose response studies. [Related pubchem assays (depositor defined):AID1779, AID1784, AID435024]
[13] = molecular target: T2, Tyrosine-protein phosphatase non-receptor type 22; assay: inhibitors of LYP phosphatase, biochemical, fluorescence intensity, uHTS (AID 1779)
[14] = molecular target: Likely tRNA 2'-phosphotransferase (Candida albicans (strain SC5314 / ATCC MYA-2876) (Yeast), UniProt Q5A7N4); assay: TPT1 tRNA phosphotransferase inhibitors, dose response, biochemical, fluorescence polarization (AID 2160)
Cannabinoid receptor 1 = Cannabinoid receptor 1 (Homo sapiens, UniProt P21554); assay: SAR analysis of antagonists of the Cannabinoid Receptor 1 using an Image-Based Assay. [Related pubchem assays (depositor defined):AID1961, AID1965]; type: functional
Cannabinoid receptor 2 [15] = molecular target: T4, Cannabinoid receptor 2 (Homo sapiens, UniProt P34972); assay: SAR analysis of antagonists of the Cannabinoid Receptor 2 using an Image-Based Assay - Set 2. [Related pubchem assays (depositor defined):AID1961, AID1965]; type: functional
[16] = molecular target: T5, G-protein coupled receptor 55 (Homo sapiens, UniProt Q9Y2T6); assay: GPR55 agonists via beta-arrestin recruitment, primary screen, imaging, U2OS cells, beta-arrestin-GFP redistribution (AID 1961); type: functional
Cannabinoid receptor 2 [17] = molecular target: T4, Cannabinoid receptor 2; assay: SAR analysis of agonists of the Cannabinoid Receptor 2 using an Image-Based Assay - Set 2. [Related pubchem assays (depositor defined):AID1961, AID1965]; type: functional
[18] = molecular target: T5, G-protein coupled receptor 55; assay: SAR analysis of selective Agonists of GPR55 using an Image-Based Assay. [Related pubchem assays (depositor defined):AID1961, AID1965]; type: functional

Question: What does the source list for `COc1ccc(Cl)cc1C(=O)Nc1cccc(-c2ccc3nncn3n2)c1`?
Answer: IC50 [1]: 5.06 µM (active); IC50 (Prothrombin): 30.2 µM (active); IC50 [2]: 12 µM (active); IC50 [3]: 7.18 µM (active); IC50 (Major prion protein): 9.03 µM (active); IC50 [4]: > 67 µM (not active); IC50 [5]: 2.86 µM (active); IC50 [6]: 16 µM (active); IC50 [7]: 48.7 µM (active); IC50 [8]: 6.56 µM (active); IC50 [9]: 8.37 µM (active); IC50 [10]: 37.9 µM (active); IC50 (cells): > 138 µM (inactive); IC50 [11]: 38.5 µM (active); IC50 [12]: > 99 µM (inactive); IC50 [13]: 50.8 µM (active); IC50 [14]: 5.93 µM (active)

Question: Which IC50 (Cannabinoid receptor 1) does the source give for `CC(C)Oc1ccc(S(=O)(=O)N2CCOCC2)cc1NC(=O)c1ccc(N2CCCC2=O)cc1` here?
Answer: The IC50 was > 32 µM (inactive).

Question: And the IC50 (Cannabinoid receptor 2 [15])?
Answer: The IC50 was > 32 µM (inactive).

Question: And the EC50 [16]?
Answer: Its EC50 is 0.969 µM (active).

Question: What about the EC50 (Cannabinoid receptor 2 [17]) of the same molecule?
Answer: Its EC50 is > 32 µM (inactive).

Question: What about the EC50 [18] of the same molecule?
Answer: The EC50 was 0.88 µM (active).
